Source: patent US8026231B2, “Aminothiolester compounds, pharmaceutical and cosmetic compositions containing same and uses thereof” (CNRS, priority 2000, dated 2011)

Legend:
[1] = test system: MRC5 cells; assay: Growth of MRC5 cells (protein and DNA assay); format: cell-based, human; conditions: 50% inhibition of growth
Method: The cells used correspond to various cell lines: human lung normal embryonic fibroblasts (MRC5), mouse melanoma cells (B16), mouse lymphocytic leukaemia cells (L1210) and L1210T cells obtained by infecting L1210 cells with a retroviral vector bearing human ALDH1 cDNA.
The procedure used for the tests on the B16 and MRC5 cells is as follows: • The test compounds are added 4 hours after placing the cells in the wells. After 72 hours, the cells are removed at different times. The B16 and MRC5 cells are washed twice with PBS and recovered directly with 0.1M sodium chloride.
The effect on the growth of the B16 and MRC5 cells is measured by protein assay according to the Lowry method (Lowry, O. H., Rosenbrough, N. J., Farr, A. L. and Randall, J. Biol. Chem. 193, 265-275, (1951)) and DNA assay by the Hoechst method (West, D. C., Sattar, A. and Kumar, S., Anal. Biochem. 147, 289-295, (1985)).
The IC50 concentration is the concentration corresponding to a 50% inhibition of growth of the cells.

[2] = test system: BAF3-bcl2 H16 cells; assay: Apoptosis induction (DNA fragmentation) in BAF3-bcl2 clone H16, 24 h; format: cell-based, mouse
Method: The BAF3-bcl2 cells correspond to BAF3 cells (mouse lymphocyte cells) tranfected with the bcl2 gene. Among these cells, four lines known as H16, G18, B14 and G21 overexpress the bcl2 gene.
Whereas the BAF3-b0 cells undergo apoptosis (more than 80% of the cells) in the absence of interleukin 3 (IL3) in 16 hours [according to Collins, M. K. L., Marvel, J., Malde, P. & Lopez-Rivas, A., J. Exp. Med. 176, 1043-1051, (1992)], the BAF3-bcl2 cells show no sign of apoptosis in the absence of IL3. They are thus apoptosis-resistant.
The procedure which was used is as follows: • The BAF3-b0 or BAF3-bcl2 cells, cultured in the presence of IL3, were labelled by a method adapted from that disclosed in Wright, S. et al., J. of Cell. Biochem. 48, 344-355, (1992).
10^5 cells/ml were incubated with 4.62 KBq.ml^−1 [^3H]-thymidine for 40 hours at 37° C. After two washes with culture medium, 2.5×10^6 cells were cultured in the presence of the test compound.
After incubating for 24 hours, these cells were recovered by centrifugation at 400×g for 5 minutes and washed 3 times with PBS buffer. The cells recovered in the pellet were lysed in 2 ml of 0.1% Triton X-100, 20 mM EDTA, 5 mM Tris pH 8 and centrifuged at 30 000×g at 4° C. for 30 minutes.
The supernatants were recovered and the pellets dissolved in 0.3 ml of 0.5N NaOH.
Aliquots of the culture medium (1 ml), of the supernatant (0.3 ml) and of the dissolved pellet (0.1 ml) were assayed in a scintillation counter.
The percentage of DNA fragments is calculated in the following way:
The percentage of fragmentation of the DNA is a direct measure of the apoptosis which the cells have undergone.

[3] = test system: ALDH1; assay: Effect on the activity of ALDH1 after preincubation; format: biochemical, baker's yeast; conditions: 400 μM
Method: The procedure used is given below: 260 mU of ALDH from baker's yeast are preincubated at 37 or 0° C. in a mixture of 1 mM EDTA, 100 mM KCl, in 60 mM of sodium phosphate buffer pH 6 in a final volume of 200 μl.
To each tube containing the 200 μl of mixture, the test compound is added to a concentration of 400 μM, with the exception of a control series which contains no test compound.
The incubation carried out at 0° C. or at 37° C. is stopped by adding 100 μg of BSA (bovine serum albumin) and acetone at −20° C. to a final concentration of 80% in order to precipitate the proteins (ALDH and BSA). The tubes are left at −20° C. for 1 hour and then centrifuged at 10 000 rpm for 10 minutes and washed with 80% acetone. […]
The reaction is started by adding 2 mM of propanal and the optical density (OD) is measured at 340 nm at T=0 and at T=5, 10, 20 and 30 minutes.
The activity of the enzyme is measured by the variation in optical density Δ OD per minute (Quash G. et al., Enzymology and molecular biology of carbonyl metabolism, Weiner et al. eds., Kluwer Academic/Plenum Publishers, New York, 97-106).
The percentage activity (A %) of the ALDH1 enzyme obtained at different preincubation times with the compound of Example 1 at 0° C. […] (represented by Δ) is measured as a function of the time t (expressed in minutes).

## CSC(=O)C#CC(C)(C)N(C)C [Example 1, S-methyl 4-dimethyl-amino-4-methyl-2-pentynethioate]
[1]
  IC50: 8.4 µM
[2]; H16, 1 μM
  DNA fragmentation (%): 2.9%
[2]; H16, 2 μM
  DNA fragmentation (%): 6.3%
[2]; H16, 4 μM
  DNA fragmentation (%): 65.3%
[2]; H16, 8 μM
  DNA fragmentation (%): 94.2%
[3]; pre-incubation at 0° C.
  Inhibition of the activity of the ALDH1 enzyme: no effect of inhibition
[3]; pre-incubation at 37° C.
  Inhibition of the activity of the ALDH1 enzyme: an effect of inhibition of the activity of the enzyme is observed
